Results published in PubChem BioAssay AID2630 (Broad Institute, 2010).
Values joined by “and” are separate entries in the source; they are usually repeats but may differ in a detail not shown here. Equal values may be shown once. Records with an inconclusive call do not appear.

Test system: T. cruzi beta-gal in NIH3T3, GalScreen luminescence, 90 h
Test: T. cruzi infection blockers in NIH3T3 cells – beta-gal luminescence, NIH3T3 host cells, confirmation (AID 2630)

Structure (SMILES): CC(C)Oc1cccc(C(=O)C2CCCN(Cc3cnn(C(C)C)c3)C2)c1 (configuration not stated)
- EC50: 68 nM and 16.5 nM

Structure (SMILES): CN(Cc1ccccc1)C(=O)C1CCCN(Cc2cccc(Cl)c2)C1 (configuration not stated)
- EC50: 231 nM and 34.7 nM
